# Results reported in patent US20140275010A1, “QUATERNARY SALTS” (priority 2013, published 2014).
# Columns and labels:
# Assay type in all cases: cell-based
# [1] = system: WiDr cells: Colon cancer cells (wildtype SF3B1); assay: Cell viability assay (CellTiter-Glo), WiDr cells; details: 72 hr
# Method: (§1) Cells are seeded in 96-well plate with 2000 cells/100 uL/well and incubated overnight. Spent media was removed and fresh media containing compound (100 uL/well) with appropriate 9 concentrations are added. Each compound was treated in duplicate or triplicate manner at each concentration. DMSO concentration was adjusted to be 0.1%. Another plate was dedicated as Tz plate which was added 0.1% DMSO in media (100 uL/well) followed by CellTiter-Glo® (Promega corp., 50 uL/well) for ATP measurement as a surrogate of cell viability. Values from this plate are used as Tz. Compound treated plates are incubated for 72 hr at 37 C. Then, CellTiter-Glo® (50 uL/well) was added and ATP level was measured. Values from compound treated wells are used as Ti and DMSO treated wells are used as C.
# (§2) Percentage growth inhibition was calculated as:
# (§3) [(Ti−Tz)/(C−Tz)]×100 for concentrations for which Ti>/=Tz
# (§4) [(Ti−Tz)/Tz]×100 for concentrations for which Ti<Tz.
# (§5) *[time zero, (Tz), control growth (C), and test growth in the presence of drug with dose (Ti)] Growth inhibition of 50% (GI50) was calculated from [(Ti−Tz)/(C−Tz)]×100=50, which was the drug concentration resulting in a 50% reduction in the net protein increase in control cells during the drug incubation. The LC50 (concentration of drug resulting in a 50% reduction in the measured value at the end of the drug treatment as compared to that at the beginning) indicating a net loss of cells following treatment was calculated from [(Ti−Tz)/Tz]×100=−50.
# (§6) Emax was defined as highest growth inhibition that particular compound achieved in tested dose range.
# [2] = system: Panc 05.04 cells: Pancreatic cancer cells (Q699H and K700E mutations in SF3B1); assay: Cell viability assay (CellTiter-Glo), Panc 05.04 cells; details: 72 hr; for Gl50 Panc 05.04: Panc 05.04 pancreatic cancer cells, SF3B1 Q699H and K700E, CellTiter-Glo; for Emax Panc 05.04: highest growth inhibition achieved in tested dose range
# Method: as §1, §2, §3, §4, §5, §6
# [3] = system: WiDr-R cells: Colon cancer cells (chemically-induced SF3B1 mutant which is resistant to E7107 (R1074H mutation)); assay: Cell viability assay (CellTiter-Glo), WiDr-R cells; details: 72 hr
# Method: as §1, §2, §3, §4, §5, §6
Compound,Gl50 WiDr [1],Gl50 Panc 05.04 [2],Emax Panc 05.04 [2],Gl50 WiDr-R [3]
CC[C@H](O)[C@@H](C)[C@H]1O[C@@H]1C[C@H](C)/C=C/C=C(\C)[C@H]1OC(=O)C[C@H](O)CC[C@@](C)(O)[C@@H](OC(=O)NCCC[N+]2(C)CCOCC2)/C=C/[C@@H]1C.[I-] [Cpd. 4],67.4 nM,41.5 nM,−75%,
CC[C@H](O)[C@@H](C)[C@H]1O[C@@H]1C[C@H](C)/C=C/C=C(\C)[C@H]1OC(=O)C[C@H](O)CC[C@@](C)(O)[C@@H](OC(=O)NCCC[N+](C)(C)C)/C=C/[C@@H]1C.[I-] [Cpd. 5],176.0 nM,120.8 nM,−79%,>10000 nM
CC[C@H](O)[C@@H](C)[C@H]1O[C@@H]1C[C@H](C)/C=C/C=C(\C)[C@H]1OC(=O)C[C@H](O)CC[C@@](C)(O)[C@@H](OC(=O)N2CC[N+](C)(C3CCCCC3)CC2)/C=C/[C@@H]1C.[I-] [Cpd. 6],227.0 nM,1593 nM,−8.1%,>1000 nM
CC[C@H](O)[C@@H](C)[C@H]1O[C@@H]1C[C@H](C)/C=C/C=C(\C)[C@H]1OC(=O)C[C@H](O)CC[C@@](C)(O)[C@@H](OC(=O)N2CCC[N+](C)(C)CC2)/C=C/[C@@H]1C.[I-] [Cpd. 8],568.0 nM,431.6 nM,−74%,>1000 nM
CC[C@H](O)[C@@H](C)[C@H]1O[C@@H]1C[C@H](C)/C=C/C=C(\C)[C@H]1OC(=O)C[C@H](O)CC[C@@](C)(O)[C@@H](OC(=O)N2CCC[N+](C)(C3CCCCC3)CC2)/C=C/[C@@H]1C.[I-] (stereo partly drawn) [Cpd. 11],958.0 nM,410.7 nM,−87%,>1000 nM
CC[C@H](O)[C@@H](C)[C@H]1O[C@@H]1C[C@H](C)/C=C/C=C(\C)[C@H]1OC(=O)C[C@H](O)CC[C@@](C)(O)[C@@H](OC(=O)N2CC3(C2)C[N+](C)(C2CCCCCC2)C3)/C=C/[C@@H]1C.[I-] [Cpd. 12],106.0 nM,79.2 nM,−89%,>1000 nM
CC[C@H](O)[C@@H](C)[C@H]1O[C@@H]1C[C@H](C)/C=C/C=C(\C)[C@H]1OC(=O)C[C@H](O)CC[C@@](C)(O)[C@@H](OC(=O)N2CCC([N+]3(C)CCCC3)CC2)/C=C/[C@@H]1C.[I-] [Cpd. 13],44.1 nM,80.4 nM,−61%,>1000 nM
CC[C@H](O)[C@@H](C)[C@H]1O[C@@H]1C[C@H](C)/C=C/C=C(\C)[C@H]1OC(=O)C[C@H](O)CC[C@@](C)(O)[C@@H](OC(=O)N2CCC([N+]3(C)CCCCC3)CC2)/C=C/[C@@H]1C.[I-] [Cpd. 14],51.4 nM,53.3 nM,−70%,>1000 nM
CC[C@H](O)[C@@H](C)[C@H]1O[C@@H]1C[C@H](C)/C=C/C=C(\C)[C@H]1OC(=O)C[C@H](O)CC[C@@](C)(O)[C@@H](OC(=O)N(C)C2CC[N+](C)(C)CC2)/C=C/[C@@H]1C.[I-] [Cpd. 15],117.0 nM,234.8 nM,−53%,>1000 nM
CC[C@H](O)[C@@H](C)[C@H]1O[C@@H]1C[C@H](C)/C=C/C=C(\C)[C@H]1OC(=O)C[C@H](O)CC[C@@](C)(O)[C@@H](OC(=O)N2C[C@H]3C[C@@H]2C[N+]3(C)C)/C=C/[C@@H]1C.[I-] [Cpd. 16],>1000 nM,1746 nM,−27%,>1000 nM
CC[C@H](O)[C@@H](C)[C@H]1O[C@@H]1C[C@@](C)(O)/C=C/C=C(\C)[C@H]1OC(=O)C[C@H](O)CC[C@@](C)(O)[C@@H](OC(=O)N2CC[N+](Cc3ccccc3)(C3CCCCCC3)CC2)/C=C/[C@@H]1C.[Br-] [Cpd. 18],162 nM,139.2 nM,−55%,
C=CC[N+]1(C2CCCCCC2)CCN(C(=O)O[C@H]2/C=C/[C@H](C)[C@@H](/C(C)=C/C=C/[C@](C)(O)C[C@H]3O[C@@H]3[C@H](C)[C@@H](O)CC)OC(=O)C[C@H](O)CC[C@@]2(C)O)CC1.[Br-] [Cpd. 19],551 nM,808.7 nM,−45%,
C=CC[N+]1(C2CCCCCC2)CCN(C(=O)O[C@H]2/C=C/[C@H](C)[C@@H](/C(C)=C/C=C/[C@](C)(O)C[C@H]3O[C@@H]3[C@H](C)[C@@H](O)CC)OC(=O)C[C@H](O)CC[C@@]2(C)O)CC1.[I-] [Cpd. 20],289 nM,316.9 nM,−67.5%,
CCC(=O)C(C)C1OC1CC(C)(O)C=CC=C(C)C1OC(=O)CC(O)CCC(C)(O)C(OC(=O)N2CC[N+](C)(C3CCCCCC3)CC2)C=CC1C.[I-] (stereo not drawn) [Cpd. 25],5500.0 nM,10000 nM,,>5500 nM
CC[C@H](O)[C@@H](C)[C@H]1O[C@@H]1C[C@H](C)/C=C/C=C(\C)[C@H]1OC(=O)C[C@H](O)CC[C@@](C)(OC(=O)N2CC[N+](C)(C3CCCCCC3)CC2)[C@@H](OC(C)=O)/C=C/[C@@H]1C.[I-] [Cpd. 26],1491.0 nM,5305 nM,,>10000 nM
CC[C@H](O)[C@@H](C)[C@H]1O[C@@H]1C[C@H](C)/C=C/C=C(\C)[C@H]1OC(=O)C[C@H](O)CC[C@@](C)(OC(=O)N2CC[N+](C)(C(C)C)CC2)[C@@H](OC(C)=O)/C=C/[C@@H]1C.[I-] [Cpd. 27],6781.0 nM,1115 nM,−56%,>10000 nM
CC[C@H](O)[C@@H](C)[C@H]1O[C@@H]1C[C@H](C)/C=C/C=C(\C)[C@H]1OC(=O)C[C@H](O)CC[C@@](C)(OC(=O)N2CC[N+](C)(C)CC2)[C@@H](OC(C)=O)/C=C/[C@@H]1C.[I-] [Cpd. 28],456.0 nM,413.3 nM,−31%,>1000 nM
CC[C@H](O)[C@@H](C)[C@H]1O[C@@H]1C[C@@](C)(O)/C=C/C=C(\C)[C@H]1OC(=O)CCCCC[C@@H](OC(=O)N2CC[N+](C)(C3CCCCCC3)CC2)/C=C/[C@@H]1C.[I-] [Cpd. 31],3285 nM,2458 nM,−22%,>10000 nM
